How the values were obtained:
IRAK4 [1] = molecular target: T1, IRAK4 (Homo sapiens, UniProt Q9NWZ3); assay: IRAK4 PhosphoSens Biochemical Assay (BIOCHEM); details: 200 μM ATP, 10 μM peptide substrate AQT0326, 1 nM IRAK4, room temperature, 240 minutes
T1 sequence (Q9NWZ3 1-460): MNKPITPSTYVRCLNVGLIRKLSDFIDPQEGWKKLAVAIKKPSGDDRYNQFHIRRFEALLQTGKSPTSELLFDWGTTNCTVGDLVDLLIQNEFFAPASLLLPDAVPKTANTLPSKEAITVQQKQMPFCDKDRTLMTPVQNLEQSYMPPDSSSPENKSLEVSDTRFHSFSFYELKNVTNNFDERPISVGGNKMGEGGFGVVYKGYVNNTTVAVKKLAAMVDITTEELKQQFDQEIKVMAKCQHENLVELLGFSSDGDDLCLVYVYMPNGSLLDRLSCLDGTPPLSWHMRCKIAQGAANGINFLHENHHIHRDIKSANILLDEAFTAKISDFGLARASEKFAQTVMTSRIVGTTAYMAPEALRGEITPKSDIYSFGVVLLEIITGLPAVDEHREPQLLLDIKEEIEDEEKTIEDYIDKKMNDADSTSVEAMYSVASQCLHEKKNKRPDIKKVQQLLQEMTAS
Description: The PhosphoSens® biochemical assay was performed as described by the vendor (AssayQuant Technologies Inc. Marlborough, MA). A 1.25× stock solution of IRAK4 (PV4002, ThermoFisher Scientific, Waltham, MA) and a 5× stock solution of ATP and Sox conjugated peptide substrate, AQT0326 (CSKS-AQT0326B, AssayQuant Technologies), were prepared in 1× kinase reaction buffer consisting of 50 mM HEPES, pH 7.5, 0.01% Brij-35, 0.5 mM EGTA, 20 mM MgCl2 and 1 mM DTT. 10 μL of the ATP and substrate solution mix, for a final concentration of 200 μM ATP and 10 μM peptide substrate, was added to a Coming 3574 384-well, white, non-binding surface microtiter plate containing 0.5 μL of serially diluted test compounds prepared in DMSO. The reactions were started with the addition of 40 μL of the enzyme solution, for a final IRAK4 concentration of 1 nM, and monitored every 71 seconds for 240 minutes at λEX 360/λEM 485 in a BioTek Synergy H4 plate reader (Agilent Technologies, Santa Clara, CA) at room temperature. The initial linear portions of the progress curves were fit according to a linear equation to yield the slopes and converted to % inhibition based on a value of 100% activity for the no inhibitor treated control. IC50 values of each compound were obtained by fitting the % inhibition-compound concentration curves using Dotmatics software (Dotmatics, Bishops Stortford, Hertfordshire, England).

IRAK4 [2] = molecular target: T1, IRAK4; assay: ALE THP1 HTRF (IRAK4 in THP1 cell lysates, Homogeneous Time Resolved Fluorescence); assay type: cell-based; set-up: THP1 Homogeneous Time Resolved Fluorescence (ALE THP1 HTRF) Procedure; endogenous in cells; host or cells: THP1; details: THP1 cells
Description: Cell culture media was prepared in a tissue culture hood in a sterile environment by adding 10% FBS and 1% Penicillin Streptomycin to 500 mL no phenol red RPMI 1640 media. The media was filtered through a Nalgene Bottle Top Filter and stored at 4° C.
For Homogenous Time Resolved Fluorescence (HTRF) assays, a Cisbio HTRF kit was used, which included: Lysis Buffer #1 4×, Blocking Reagent #3 100×, 20× Antibody 1 (Anti-IRAK4 d2), 20× Antibody 2 (Anti-IRAK4 k), and Detection Buffer.
4× Lysis Buffer was stored at 4° C. For use as 1× Lysis buffer, the 4× solution was diluted with de-ionized water (distilled water, Gibco Cat. #15230279) and 100× Blocking Reagent in a 1:3:0.04 volume ratio.
20× Antibody Solution aliquots were stored in −80° C. and the Detection Buffer was stored in 4° C. For use as a 1× Antibody Solution, the 20× Antibody Solution aliquot was diluted with Detection Buffer in a 1:19 volume ratio.
Cells were lysed at room temperature for 45 min with shaking. A BCA protein assay was performed and normalization was conducted to the desired total protein concentration with 1× lysis buffer. Next, 1× Antibody Solutions were prepared by adding 380 μL Detection Buffer to 20 μL 20× Antibody Solution aliquots and mixing well. 1× Antibody Solutions were combined 1:1 and briefly vortexed. For control wells, 20 μL 1× anti IRAK4-k Antibody Solution was saved. The 384-well plate (ProxiPlate-384 Plus, Perkin Elmer Cat. #6008289) was loaded by adding 4 μL of the mixed Antibody Solution to empty wells using a single channel repeater. Using a multi-channel repeater, 16 μL lysate was added per well, and any bubbles that were formed were popped with 20 μL pipette tips and Kimwipe edges. In column 10, triplicates of each control was prepared. In wells A10, B10, and C10, buffer control was prepared by adding 16 μL Lysis Buffer and 4 μL Detection Buffer. In wells D10, E10, and F10, cryptate control was prepared by adding 16 μL Lysis Buffer, 2 μL Detection Buffer, and 2 μL 1× anti IRAK4-k Antibody Solution. In wells G10, H10, and 110, a negative control was prepared by adding 16 μL Lysis Buffer and 4 μL mixed Antibody Solution. The plate was sealed with a clear seal and covered with an aluminum lid. The plate was spun down at 800 g for 5 min and incubated in the dark at room temperature overnight. The next day, the plate was spun down at 800 g for 5 min. The samples were analyzed by a plate reader (Envision, PerkinElmer) using the Desnor 384 HTRF program.

| SMILES | IC50 (IRAK4 [1]) [nM] | EC50 (IRAK4 [2]) [nM] |
| --- | --- | --- |
| CN(CC1CCC(n2cc(NC(=O)c3cnn4ccc(N5C[C@H](N)C[C@@H](F)C5)nc34)c(C(F)F)n2)CC1)C1CCN(c2cccc3c(C4CCC(=O)NC4=O)nn(C)c23)CC1 (stereo partly drawn) [P-30, N-[3-(difluoromethyl)-1-[4-[[[1-[3-(2,6-dioxo-3-piperidyl)-1-methyl-indazol-7-yl]-4-piperidyl]-methyl-amino]methyl]cyclohexyl]pyrazol-4-yl]-5-[(3R,5R)-3-amino-5-fluoro-1-piperidyl]pyrazolo[1,5-a]pyrimidine-3-carboxamide] | < 0.5 | 14 |
| CN(c1cccc2c(C3CCC(=O)NC3=O)nn(C)c12)C1CCN(CCC2CCC(n3cc(NC(=O)c4cnn5ccc(N6CCOCC6)nc45)c(C(F)F)n3)CC2)CC1 (stereo not drawn) [P-39] | < 0.5 | > 10000 |
| CN(CC1CCC(n2cc(NC(=O)c3cnn4ccc(N5C[C@H]6CC[C@@H](C5)O6)nc34)c(C(F)F)n2)CC1)C1CCN(c2ccc3c(C4CCC(=O)NC4=O)nn(C)c3c2)CC1 (stereo partly drawn) [P-42] | < 0.5 | > 10000 |

Further lines, results first:

| IC50 (IRAK4 [1]) [nM] | EC50 (IRAK4 [2]) [nM] | SMILES |
| --- | --- | --- |
| < 0.5 | 5 | CN(CC1CCC(n2cc(NC(=O)c3cnn4ccc(N5C[C@H](N)C[C@@H](F)C5)nc34)c(C(F)F)n2)CC1)C1CCN(c2ccc3c(C4CCC(=O)NC4=O)nn(C)c3c2)CC1 (stereo partly drawn) [P-28, N-[3-(Difluoromethyl)-1-[4-[[[1-[3-(2,6-dioxo-3-piperidyl)-1-methyl-indazol-6-yl]-4-piperidyl]-methyl-amino]methyl]cyclohexyl]pyrazol-4-yl]-5-[(3r,5r)-3-amino-5-fluoro-1-piperidyl]pyrazolo[1,5-a]pyrimidine-3-carboxamide] |
| 0.8 | > 10000 | CN(CC1CCC(n2cc(NC(=O)c3cnn4ccc(N5Cc6cnn(C)c6C5)nc34)c(C(F)F)n2)CC1)C1CCN(c2ccc3c(C4CCC(=O)NC4=O)nn(C)c3c2)CC1 (stereo not drawn) [P-49] |
| 0.8 | > 10000 | CN(CC1CCC(n2cc(NC(=O)c3cnn4ccc(N5CC[C@H](C#N)C5)nc34)c(C(F)F)n2)CC1)C1CCN(c2ccc3c(C4CCC(=O)NC4=O)nn(C)c3c2)CC1 (stereo partly drawn) [P-50] |
